Like-named read-outs stand apart in the source and are kept apart here.
Experiments:
[1] = Solubility in water and salt solutions; type: physicochemical
[2] = Long-term cycling of 0.1 M 2,6-N-TSAQ/ferrocyanide flow cell
Method: Flow battery experiments were performed with cell and hardware from Fuel Cell Tech. (Albuquerque, NM). Pyrosealed POCO graphite flow plates with serpentine flow designs were used for both electrodes. Each electrode comprised a single 5 cm^2 geometric surface area sheet of AvCarb carbon electrode. For 2,6-N-TSAQ/ferrocyanide full cell tests, a Nafion™ 212 membrane was used to serve as the ion-selective membrane. The Nafion membrane was soaked in the supporting electrolyte (sodium hydroxide or sodium chloride) for at least 24 hours before use. Viton sheets were used to cover the outer portion space between the electrodes. Torque used for cell assembly was 60 lb-in (6.78 Nm) on each of eight 1/4-28 bolts. The electrolytes were fed into the cell through fluorinated ethylene propylene (FEP) tubing at a rate of 60 mL/min, controlled by Cole-Parmer 6 Masterflex L/S peristaltic pumps. The cell was run inside a glove box (1 ppm O2). Cell polarization measurements and charge-discharge cycling were conducted using a Biologic BCS-815 battery cycler. […] The polarization curves were obtained by charging to a desired state of charge first and then polarizing via linear sweep voltammetry at a rate of 100 mV s^−1.
Long-term cycling testing of 0.1 M 2,6-N-TSAQ/ferrocyanide was performed with the same cell. The cell was cycled at 40 mA cm^2 with potential holds at 1.4 V for charging and 0.6 V for discharging until the current density dropped to 2 mA cm^−2. The initial discharge capacity was 4.764 Ah L^−1, corresponding to a capacity utilization of 88.9% of the theoretical value. However, the OCV at different SOC values in FIG. 8 (a) and the typical voltage profile in FIG. 9 (c) indicates it accesses the complete capacity of 2,6-N-TSAQ under such conditions. The differences between the actual capacity and the theoretical value could come from non-redox active impurities such as water or salts in the sample. […] The average coulombic efficiency was determined to be above 99.9%. […]

[3] = Cyclic voltammetry (three-electrode system); type: physicochemical
Method: A glassy carbon (BASi, 3 mm diameter) working electrode, an Ag/AgCl reference electrode (BASi, 3 M NaCl solution), and a graphite counter electrode were used in the three-electrode system for all CV tests. The scan rates for CV tests were 10, 20, 50, 100, and 200 mV s^−1. The diffusion coefficient D was calculated based on the Randles-Sevcik equation: Ip=269000×n^1.5 AD^0.5v^0.5C, where Ip is the peak current in amps, n is the number of electrons involved (n=2 for 2,6-N-TSAQ) in the redox reaction, A is the active surface area (0.0707 cm^2), D is the diffusion coefficient in cm^2/s, v is the scan rate in V/s, and C is the concentration of redox species in mol/cm^3.
The reduction potential of 2,6-N-TSAQ is-0.62 V vs. SHE in 1M NaCl, which is 120 mV and 170 mV lower than that of 2,6-O-DPSAQ and 2,6-DPSAQ in 1M NaCl, respectively. The low redox potential of 2,6-N-TSAQ is attributed to the strong electron donating effect of N-alkyl group. It contributes to form a high working voltage and high power density flow battery. […] The ammonium cation, however, sacrifices the redox potential of 2,6-N-TSAQ as the local pH is always lower than the pKa2 of 9,10-dihydroxyanthracene, which is also observed in the reported 9,10-anthraquinone-2,7-disulfonic diammonium salt.

[4] = Storage in 1 M NaCl at 65° C. for 8 days, 1H NMR; type: physicochemical
Excerpt: For comparison, the long-term cycling of the 0.1 M 2,6-N-TSAQ/ferrocyanide cell was operated at neutral condition (1 M sodium chloride) but, otherwise, the same conditions. The initial volumetric capacity was 4.774 Ah L^−1, which is similar to that at pH 14. After 2.84 days cycling, the discharge capacity dropped to 4.412 Ah/L, corresponding to a capacity fade rate of 2.6%/day, which is around 2 orders magnitude higher than that at pH 14. And the coulombic efficiency is around 99.8% over the whole cycling process, which is slightly lower than that at pH 14. […] To investigate the origin of instability of 2,6-N-TSAQ at neutral condition, both oxidized and reduced forms of 2,6-N-TSAQ were stored in 1 M NaCl at 65° C. for 8 days.

[5] = water, read-out: water solubility

| Structure (SMILES) | solubility [1, 5] [mM] | capacity fade rate ([2]; neutral condition (1 M sodium chloride), 0.1 M, 2.84 days cycling) [%/day] | cycle-denominated capacity fade rate ([2]; pH 14, 0.1 M, full SOC range cycling) [%/cycle] | temporal capacity fade rate ([2]; pH 14, 0.1 M, full SOC range cycling, 9 days) [%/day] | reduction potential ([3]; 1M NaCl (unbuffered)) [V vs. SHE] | reduction potential lower than that of 2,6-DPSAQ ([3]; difference versus 2,6-DPSAQ) [mV] | reduction potential lower than that of 2,6-O-DPSAQ ([3]; difference versus 2,6-O-DPSAQ) [mV] | solubility ([1]; water, with ammonium ion exchange, read-out: solubility) [mM] | decomposition by 1H NMR, oxidized state ([4]; oxidized form) | decomposition by 1H NMR, reduced state ([4]; reduced form) | solubility ([1]; 1 M lithium chloride, saline or isotonic, 1 M lithium chloride, read-out: solubility) [mM] | solubility ([1]; 1 M sodium chloride, saline or isotonic, 1 M sodium chloride, read-out: solubility) [mM] | solubility ([1]; deionized water, water, deionized water, read-out: solubility) [mM] |
| --- | --- | --- | --- | --- | --- | --- | --- | --- | --- | --- | --- | --- | --- |
| O=C1c2ccc(CCCS(=O)(=O)[O-])cc2C(=O)c2ccc(CCCS(=O)(=O)[O-])cc21.[Na+].[Na+] [2,6-DPSAQ, sodium 3,3′-(9,10-anthraquinone-2,6-diyl)bis(propane-1-sulfonate)] | 300 | – | – | – | – | – | – | – | – | – | – | – | – |
| O=C1c2ccc(N(CCCS(=O)(=O)O)CCCS(=O)(=O)O)cc2C(=O)c2ccc(N(CCCS(=O)(=O)O)CCCS(=O)(=O)O)cc21 [2,6-N-TSAQ, sodium 3,3′,3″,3′″-((9,10-anthraquinone-2,6-diyl)bis(azanetriyl))tetrakis(propane-1-sulfonate)] | 450 | 2.6 | 0.00024 | 0.025 | −0.62 | 170 | 120 | 650 | no apparent decomposition | a large quantity of decomposition | – | – | – |
| O=C1c2ccc(OCCCS(=O)(=O)[O-])cc2C(=O)c2ccc(OCCCS(=O)(=O)[O-])cc21.[Na+].[Na+] [2,6-O-DPSAQ, sodium 3,3′-((9,10-anthraquinone-2,6-diyl)bis(oxy))bis(propane-1-sulfonate)] | – | – | – | – | – | – | – | – | – | – | 10 | < 5 | 10 |
